Among the test systems are EKVX NSCLC; COLO 205 colon; A549 NSCLC; UACC-62 melanoma; OVCAR-5 ovarian; SN12C renal; ACHN renal; A498 renal; SF-539 CNS; KM12 colon.
Assay in all cases: DTP human tumour cell line panel, 48 h

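The compound was tested at five concentrations on cells cultured in 96-well plates, with a 48-hour exposure period. The concentration for 50% growth inhibition is given as GI50. TGI marks complete inhibition of growth.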

`C=C1CC[C@H]2C(C)=CC[C@H]3C(=C)C(=O)O[C@@H]3[C@@H]12`: the TGI with EKVX NSCLC, in the assay with COLO 205 colon, in the assay on A549 NSCLC, in the assay on UACC-62 melanoma, in the assay with OVCAR-5 ovarian and in the assay on SN12C renal was above 100 µM in each case. In addition, the TGI in the assay on ACHN renal, in the assay with A498 renal and in the assay with SF-539 CNS was above 100 µM throughout.

In the case of `OCCN(CO)CO`, the TGI with EKVX NSCLC, in the assay with COLO 205 colon, with A549 NSCLC, in the assay with UACC-62 melanoma, in the assay on SN12C renal and in the assay on ACHN renal was above 100 µM throughout. The TGI in the assay on A498 renal, with SF-539 CNS and in the assay with KM12 colon was above 100 µM throughout.

With `COc1ccc(C2NC(=S)NC3=C2CCOc2c3ccc3ccccc23)cc1` (stereo not drawn), the GI50 was 17.4 µM in the assay on EKVX NSCLC; 53.8 µM in the assay with COLO 205 colon; 39 µM in the assay on A549 NSCLC; 21.2 µM in the assay with UACC-62 melanoma; above 100 µM with OVCAR-5 ovarian; above 100 µM in the assay with SN12C renal. Moreover, the GI50 with ACHN renal was 69.3 µM; with A498 renal, 16.6 µM; in the assay with KM12 colon it was 27 µM. The TGI in the assay with EKVX NSCLC, in the assay on COLO 205 colon, in the assay on A549 NSCLC, in the assay with UACC-62 melanoma, in the assay with OVCAR-5 ovarian and in the assay on SN12C renal was above 100 µM throughout. The total growth inhibition concentration (TGI) in the assay on ACHN renal, in the assay with A498 renal and in the assay on KM12 colon was above 100 µM in each case.

Take `COCC(C(=O)OC1C/C=C/C=C/C(=O)OC(C(C)C(O)C(C)CCC(OC(=O)C(C)N(C)C)C(C)C(OC(C)=O)C(C)/C=C/N(C)C=O)C/C=C/C(OC)CC(C)C/C=C(\C)C(OC)CCC(C)C(O)C1C)N(C)C` (stereo not drawn): the GI50 in the assay on EKVX NSCLC was below 0.0001 µM; with A549 NSCLC, below 0.0001 µM; with UACC-62 melanoma it was below 0.0001 µM; in the assay on OVCAR-5 ovarian it was below 0.0001 µM; with SN12C renal, below 0.0001 µM; in the assay with ACHN renal, 0.000173 µM. For the same compound, the GI50 with A498 renal, with SF-539 CNS and with KM12 colon was below 0.0001 µM in each case. Besides, the TGI in the assay with EKVX NSCLC is 0.0275 µM; with A549 NSCLC, 0.156 µM; in the assay with UACC-62 melanoma, 0.000461 µM; in the assay on OVCAR-5 ovarian, 0.162 µM; in the assay on SN12C renal it was 0.105 µM; with ACHN renal, above 0.393 µM. The TGI in the assay with A498 renal, with SF-539 CNS and with KM12 colon was below 0.0001 µM each time.

On to `COc1cc2c3c(n(CCCNCCCNCCCN)c(=O)c2cc1OC)-c1cc2c(cc1C3=O)OCO2`, for which the GI50 was above 100 µM in the assay on EKVX NSCLC; 46.1 µM with COLO 205 colon; above 100 µM in the assay on A549 NSCLC; 44.1 µM with UACC-62 melanoma; 32.9 µM with SN12C renal; 91.6 µM in the assay on ACHN renal. In addition, the GI50 in the assay on A498 renal, in the assay on SF-539 CNS and in the assay on KM12 colon was above 100 µM in each case. For the same compound, the TGI in the assay with EKVX NSCLC, in the assay on COLO 205 colon, with A549 NSCLC, in the assay on UACC-62 melanoma, in the assay with SN12C renal and in the assay on ACHN renal was above 100 µM throughout. Besides, the TGI in the assay on A498 renal, in the assay with SF-539 CNS and with KM12 colon was above 100 µM in each case.

Take `COc1cc(-c2nn(-c3cccc(NC(=O)CCNc4ccc(N5CCOCC5)cc4)c3)cc2-c2ccncc2)ccc1Cl`: the GI50 with EKVX NSCLC was 3.07 µM; in the assay with A549 NSCLC, 1.46 µM; in the assay with UACC-62 melanoma, 1.88 µM; with OVCAR-5 ovarian, 3.43 µM; in the assay on SN12C renal, 3.19 µM; in the assay on ACHN renal, 2.44 µM. The GI50 was 2.52 µM in the assay on A498 renal, 2.91 µM with SF-539 CNS and 2.44 µM in the assay with KM12 colon. In addition, the TGI in the assay on EKVX NSCLC is above 100 µM; in the assay with A549 NSCLC, 25.1 µM; with UACC-62 melanoma it was 4.89 µM; in the assay on OVCAR-5 ovarian it was above 100 µM; in the assay with SN12C renal, above 100 µM; with ACHN renal, 41.4 µM. The figures for the concentration for total growth inhibition (TGI) in the assay with A498 renal, with SF-539 CNS and in the assay with KM12 colon were 17.4 µM, 19.4 µM and 20 µM, respectively.

On to `CN(C)CCN1CCc2c([nH]c3ccccc23)C1c1cccnc1` (stereo not drawn), for which the TGI in the assay with EKVX NSCLC was above 100 µM; with A549 NSCLC it was above 100 µM; in the assay with UACC-62 melanoma it was above 100 µM; in the assay with OVCAR-5 ovarian, above 100 µM; in the assay with SN12C renal it was above 100 µM; with ACHN renal, 50.9 µM. In addition, the TGI in the assay on A498 renal, in the assay on SF-539 CNS and with KM12 colon was above 100 µM each time.

With `CN(C)c1ccc(C(O)C2=CC(=O)c3ccccc3C2=O)cc1` (stereo not drawn), the GI50 is 5.37 µM in the assay with EKVX NSCLC; 30.3 µM in the assay on A549 NSCLC; 22.4 µM in the assay on OVCAR-5 ovarian; 1.56 µM with SN12C renal; 3.69 µM in the assay with ACHN renal; 15.1 µM in the assay with A498 renal. The values for the GI50 in the assay with SF-539 CNS and in the assay on KM12 colon were 2.6 µM and 13.7 µM, respectively. In addition, the TGI was 92.9 µM with EKVX NSCLC; above 100 µM in the assay with A549 NSCLC; 52.4 µM in the assay with OVCAR-5 ovarian; 4.54 µM in the assay with SN12C renal; 31.8 µM in the assay on ACHN renal; 63 µM with A498 renal. In addition, the TGI stood at 6.08 µM in the assay on SF-539 CNS and 91.4 µM in the assay with KM12 colon.

In the case of `Nc1ccccc1C#Cc1ccccc1C#Cc1cccs1`, the GI50 is 18 µM with EKVX NSCLC; 16.9 µM in the assay with A549 NSCLC; 13.8 µM in the assay on UACC-62 melanoma; 14.5 µM in the assay on OVCAR-5 ovarian; 14.5 µM with SN12C renal; 18.7 µM with ACHN renal. Further, the GI50 in the assay with A498 renal was 15.1 µM; with SF-539 CNS, 16.1 µM; with KM12 colon, 10.3 µM. Further, the concentration for total growth inhibition (TGI) in the assay with EKVX NSCLC was 48.5 µM; in the assay on A549 NSCLC, above 100 µM; in the assay on UACC-62 melanoma it was 28.6 µM; in the assay on OVCAR-5 ovarian, 30 µM; with SN12C renal it was 29.1 µM; in the assay with ACHN renal, 39.4 µM. Moreover, the values for the TGI in the assay on A498 renal, in the assay on SF-539 CNS and in the assay with KM12 colon were 29.5 µM, 32.9 µM and 27.7 µM, respectively.

Source of the values: PubChem BioAssay (NCI).
